Measured values: US11571407B2, “Bicalutamide analogs or (S)-bicalutamide as exocytosis activating compounds for use in the treatment of a lysosomal storage disorder or glycogenosis” (BCN PEPTIDES, S.A., priority 2013, dated 2023)
Marks after values point to notes of the source that are not given here.

Assays:
[1] = system: fibroblasts from patients affected by different lysosomal storage diseases; assay: Determination of lysosomal exocytosis (β-hexosaminidase activity in the culture medium); assay type: cell-based, human; settings: vs untreated
Protocol: (§1) Fibroblasts from thirteen patients affected by seven different lysosomal storage diseases (Fabry, Gaucher, Hurler, Niemann-Pick type A/B, Sanfilippo A, Sanfilippo B and Tay-Sachs) were cultured in DMEM (Dulbecco's modified Eagles medium) with 10% fetal bovine serum and in the presence of antibiotics (penicillin and streptomycin), at 37° C. with 5% CO2. All reagents were purchased from PAA Laboratories (Velizy-Villacoublay, France). The fibroblasts of the patients were selected on the basis of availability of fibroblasts and measurable residual activity. The use of human samples was approved by the Ethical Committee of Hospital Clinic, Barcelona
Fibroblasts cultured for 72 h in 24 well-plates in the presence or absence of bicalutamide, (S)-bicalutamide, (S)-bicalutamide analogs or (R)-bicalutamide at different concentrations in triplicate (10 nmol/L, 100 nmol/L, 1 μmol/L, 10 μmol/L, 50 μmol/L and 100 μmol/L), were rinsed with physiological saline. The cells were lysed by using 3 freeze-thaw cycles. Then protein concentration was determined by using the Lowry method. Protein lysates (10 μg) were seeded in 96-well plates and the enzymatic activity of the enzyme involved in each disease was determined in triplicate by means of fluorimetric artificial substrates: 4-methylumbelliferyl-α-N-sulphoglucosaminide for Sanfilippo A, 4-methylumbelliferyl-2-acetamido-2 deoxy-α-D-glucopyranoside for Sanfilippo B, 4-methylumbelliferyl-α-L-iduronide for Hurler, 4-methylumbelliferyl-N-acetyl-β-D-glucosaminide for Tay-sachs, 4-methylumbelliferyl-β-D-glucopyranoside for Gaucher, 4-methylumbelliferyl-α-Galactopiranosid for Fabry disease, and 6-hexadecanoylamino-4-methylumbelliferyl-P-colline for Niemann-Pick type AB. The activity of the enzyme β-hexosaminidase was assayed by using 4-methylumbelliferyl-2 acetamido-2 deoxy-β-D-glucopyranoside as artificial substrate [Annunziata et al., Study of influence of sex and age on human serum lysosomal enzymes by using 4-methylumbelliferyl substrates. Clin. Chim. Acta.
Lysosomal exocytosis was monitorized by measuring the enzymatic activity of the lysosomal enzyme β-hexosaminidase in the culture medium [Xu M, et al, δ-Tocopherol reduces lipid accumulation in Niemann-Pick type C1 and Wolman cholesterol storage disorders. […] The fibroblasts were previously treated with different concentrations of bicalutamide, (S)-bicalutamide or (R)-bicalutamide (10 nmol/L, 100 nmol/L, 1 μmol/L, 10 μmol/L, 50 μmol/L and 100 μmol/L) in triplicate in 24-well plates. At 0, 24, 48 and 72 hours, 30 μL of culture medium was aliquoted for the subsequent β-hexosaminidase activity assay.
Fibroblasts from two patients affected by Sanfilippo B and Hurler diseases were treated with different concentrations of bicalutamide (racemic mixture at increasing concentrations of 0.01, 0.1, 1, 10 and 100 μM). And the increase in lysosomal exocytosis was determined by analyzing the enzymatic activity of the lysosomal enzyme β-hexosaminidase in the culture medium.
Fibroblasts from thirteen patients affected by different lysosomal storage diseases (four Sanfilippo B disease patients with different genotypes, three Sanfilippo A disease patients with different genotypes, two Tay-Sachs disease patients with the same genotype, one Gaucher disease patient, one Niemann-pick type A/B disease patient, one Hurler disease patient, and one Fabry disease patient) were independently treated with different concentrations of (R)- and (S)-bicalutamide (50 and 100 μM) for 72 hours.

[2] = system: fibroblasts from patients affected by different lysosomal storage diseases; assay: Determination of glycosaminoglycans (GAGs), 1,9-dimethylmethylene blue (DMB) assay; assay type: cell-based, human; settings: vs untreated
Protocol: as §1
Glycobiology. […] The fibroblasts were cultured in triplicate in 6-well plates and they were harvested 72 hours after treatment. DMB absorbance was measured in duplicate at 656 nm with a microplate reader (POLARstar Omega, BMG LABTECH, Offenburg, Germany).
Fibroblasts from three patients affected by Sanfilippo B disease and one patient affected by Hurler disease were treated with increasing concentrations of bicalutamide (racemic mixture at increasing concentrations of 0.01, 0.1, 1, 10 and 100 μM). Glycosaminoglycans (GAGs) levels were quantified with the 1,9-dimethylmethylene blue (DMB) assay.
Fibroblasts from seven patients affected by different diseases derived from lysosomal storage (three Sanfilippo B disease patients with different genotypes, one Sanfilippo A disease patient, one Tay-Sachs disease patient, one Niemann-Pick type A/B disease patient and one Hurler disease patient) were independently treated with different concentrations of (R)- and (S)-bicalutamide (50 and 100 μM).

How did the “Increase in lysosomal Exocytosis (%)” value ([1]; Table 1 patient 1, Sanfilippo B fibroblasts, 10 nM) turn out when `CC(O)(CS(=O)(=O)c1ccc(F)cc1)C(=O)Nc1ccc(C#N)c(C(F)(F)F)c1` (racemic) [Racemic Bicalutamide] was run?
The value was 31* %.

What about the “Increase in lysosomal Exocytosis (%)” value ([1]; Table 1 patient 1, Sanfilippo B fibroblasts, 100 nM) of the same molecule?
The value was 23* %.

And the “Increase in lysosomal Exocytosis (%)” value ([1]; Table 1 patient 1, Sanfilippo B fibroblasts, 1 μM)?
Its value is 49%.

And the “Increase in lysosomal Exocytosis (%)” value ([1]; Table 1 patient 1, Sanfilippo B fibroblasts, 10 μM)?
Its value is 45%.

What about the “Increase in lysosomal Exocytosis (%)” value ([1]; Table 1 patient 1, Sanfilippo B fibroblasts, 100 μM) of the same molecule?
Its value is 100* %.

And the “Increase in lysosomal Exocytosis (%)” value ([1]; Table 1 patient 2, Hurler fibroblasts, 10 nM)?
The value was 14%.

And the “Increase in lysosomal Exocytosis (%)” value ([1]; Table 1 patient 2, Hurler fibroblasts, 100 nM)?
The value was 13%.

And the “Increase in lysosomal Exocytosis (%)” value ([1]; Table 1 patient 2, Hurler fibroblasts, 1 μM)?
The value was 9%.

And the “Increase in lysosomal Exocytosis (%)” value ([1]; Table 1 patient 2, Hurler fibroblasts, 10 μM)?
Its value is 3%.

What about the “Increase in lysosomal Exocytosis (%)” value ([1]; Table 1 patient 2, Hurler fibroblasts, 100 μM) of the same molecule?
Its value is 8%.

What about the “Increase in lysosomal Exocytosis (%)” value ([1]; Table 1 patient 3, Control fibroblasts, 10 nM) of the same molecule?
Its value is 0%.

And the “Increase in lysosomal Exocytosis (%)” value ([1]; Table 1 patient 3, Control fibroblasts, 100 nM)?
The value was 27%.

What about the “Increase in lysosomal Exocytosis (%)” value ([1]; Table 1 patient 3, Control fibroblasts, 1 μM) of the same molecule?
The value was 13%.

What about the “Increase in lysosomal Exocytosis (%)” value ([1]; Table 1 patient 3, Control fibroblasts, 10 μM) of the same molecule?
The value was 12* %.

And the “Increase in lysosomal Exocytosis (%)” value ([1]; Table 1 patient 3, Control fibroblasts, 100 μM)?
The value was 13* %.

What about the “Decrease of GAGs (%)” value ([2]; Table 2 patient 1, Sanfilippo B fibroblasts, 10 nM) of the same molecule?
Its value is 17%.

And the “Decrease of GAGs (%)” value ([2]; Table 2 patient 1, Sanfilippo B fibroblasts, 100 nM)?
Its value is 25%.

And the “Decrease of GAGs (%)” value ([2]; Table 2 patient 1, Sanfilippo B fibroblasts, 1 μM)?
The value was 17%.

And the “Decrease of GAGs (%)” value ([2]; Table 2 patient 1, Sanfilippo B fibroblasts, 10 μM)?
The value was 22* %.

And the “Decrease of GAGs (%)” value ([2]; Table 2 patient 1, Sanfilippo B fibroblasts, 100 μM)?
Its value is 54* %.

And the “Decrease of GAGs (%)” value ([2]; Table 2 patient 2, Sanfilippo B fibroblasts, 10 nM)?
The value was 0%.

What about the “Decrease of GAGs (%)” value ([2]; Table 2 patient 2, Sanfilippo B fibroblasts, 100 nM) of the same molecule?
The value was 16%.

What about the “Decrease of GAGs (%)” value ([2]; Table 2 patient 2, Sanfilippo B fibroblasts, 1 μM) of the same molecule?
Its value is 0%.

What about the “Decrease of GAGs (%)” value ([2]; Table 2 patient 2, Sanfilippo B fibroblasts, 10 μM) of the same molecule?
Its value is 0%.

What about the “Decrease of GAGs (%)” value ([2]; Table 2 patient 2, Sanfilippo B fibroblasts, 100 μM) of the same molecule?
Its value is 20%.

What about the “Decrease of GAGs (%)” value ([2]; Table 2 patient 3, Sanfilippo B fibroblasts, 10 nM) of the same molecule?
The value was 53%.

What about the “Decrease of GAGs (%)” value ([2]; Table 2 patient 3, Sanfilippo B fibroblasts, 100 nM) of the same molecule?
The value was 13%.

What about the “Decrease of GAGs (%)” value ([2]; Table 2 patient 3, Sanfilippo B fibroblasts, 1 μM) of the same molecule?
Its value is 33%.

And the “Decrease of GAGs (%)” value ([2]; Table 2 patient 3, Sanfilippo B fibroblasts, 10 μM)?
The value was 33%.

And the “Decrease of GAGs (%)” value ([2]; Table 2 patient 3, Sanfilippo B fibroblasts, 100 μM)?
The value was 0%.

And the “Decrease of GAGs (%)” value ([2]; Table 2 patient 4, Hurler fibroblasts, 10 nM)?
Its value is 0%.

And the “Decrease of GAGs (%)” value ([2]; Table 2 patient 4, Hurler fibroblasts, 100 nM)?
The value was 0%.

What about the “Decrease of GAGs (%)” value ([2]; Table 2 patient 4, Hurler fibroblasts, 1 μM) of the same molecule?
The value was 0%.

And the “Decrease of GAGs (%)” value ([2]; Table 2 patient 4, Hurler fibroblasts, 10 μM)?
The value was 0%.

And the “Decrease of GAGs (%)” value ([2]; Table 2 patient 4, Hurler fibroblasts, 100 μM)?
Its value is 0%.

And the “Decrease of GAGs (%)” value ([2]; Table 2 patient 5, Control fibroblasts, 10 nM)?
The value was 0%.

And the “Decrease of GAGs (%)” value ([2]; Table 2 patient 5, Control fibroblasts, 100 nM)?
The value was 0%.

What about the “Decrease of GAGs (%)” value ([2]; Table 2 patient 5, Control fibroblasts, 1 μM) of the same molecule?
The value was 0%.

What about the “Decrease of GAGs (%)” value ([2]; Table 2 patient 5, Control fibroblasts, 10 μM) of the same molecule?
The value was 0%.

What about the “Decrease of GAGs (%)” value ([2]; Table 2 patient 5, Control fibroblasts, 100 μM) of the same molecule?
Its value is 0%.
